Values of other authors in patent US9968093B1, “Development and manufacturing process of powdered additive for its use in coatings or substrates to repel, reduce and control insects” (priority 2016, dated 2018).
“Also recorded” adds a separate entry of the source. Read-outs that look alike come from different tables or passages of the source.

What was measured:
[1] = for Toxicity: toxicity in words
[2] = for Time to decompose (Mean life): aqueous medium; for Stability in aqueous medium, in words: pH as stated in the value

## CCOP(=S)(OCC)Oc1ccc2c(C)c(Cl)c(=O)oc2c1 [Coumaphos]
[1]
  Toxicity: Toxic

## CCOP(=S)(OCC)Oc1nc(Cl)c(Cl)cc1Cl [Chlorpyrifos]
[2]; pH 10
  Time to decompose (Mean life): 7 days
[2]
  Stability in aqueous medium, in words: stable in neutral and lightly

## CC1(C)C(C=C(Cl)Cl)C1C(=O)OC(C#N)c1cccc(Oc2ccccc2)c1 (stereo not shown) [Cypermethrin]
[2]; pH 9
  Time to decompose (Mean life): 7 days

## CCOP(=S)(OCC)Oc1cc(C)nc(C(C)C)n1 [Diazinon]
[2]; pH 5
  Time to decompose (Mean life): 31 days
[2]; pH 7.5
  Time to decompose (Mean life): 185 days
[2]; pH 9
  Time to decompose (Mean life): 136 days

## CC(COc1ccc(Oc2ccccc2)cc1)Oc1ccccn1 (stereo not shown) [Pyriproxyfen]
[2]
  Stability in aqueous medium, in words: Stable in a pH range between 4 and 9.

## CCOC(=O)CC(SP(=S)(OC)OC)C(=O)OCC (stereo not shown) [Malathion]
[2]
  Stability in aqueous medium, in words: Quickly hydrolyzed at pHs over 7. The optimal pH

## O=C(NC(=O)c1c(F)cccc1F)Nc1ccc(Cl)cc1 [Diflubenzuron]
[2]
  Stability in aqueous medium, in words: Stable in pH between 5 and 7; also recorded: Hydrolyzed at pH 9

## CCN(CC)c1nc(C)cc(OP(=S)(OC)OC)n1 [Methyl pirimiphos]
[2]; pH 5
  Time to decompose (Mean life): 7 days
[2]; pH 8
  Time to decompose (Mean life): 5 days

## OB(O)O [Boric acid]
[1]
  Toxicity (group): Group II
  Toxicity: Mildly toxic

## CC1(C)C(C=C(Cl)Cl)C1C(=O)OCc1cccc(Oc2ccccc2)c1 (stereo not shown) [Permethrin]
[2]
  Stability in aqueous medium, in words: Stable at pH between 5 and 6.

## CC1(C)[C@H](C(=O)O[C@H](C#N)c2cccc(Oc3ccccc3)c2)[C@@H]1C=C(Br)Br [Deltamethrin]
[2]; pH 7
  Time to decompose (Mean life): 0.33 days
[2]
  Stability in aqueous medium, in words: more stable in medium acid solutions

## CNC(=O)Oc1cccc2c1OC(C)(C)C2 [Carbofuran]
[1]
  Toxicity (group): Group II
  Toxicity: Mildly toxic

## C=CCC1=C(C)C(OC(=O)C2C(C=C(C)C)C2(C)C)CC1=O [D-allethrin]
[2]; pH 7
  Time to decompose (Mean life): 500 days
[2]; pH 9
  Time to decompose (Mean life): (4.3 days)
[2]
  Stability in aqueous medium, in words: Stable at pH 5 after 31 days
